Literature values in US12527803B2, “Testosterone dodecanoate compositions and methods” (priority 2023, dated 2026).

Key:
[1] = test system: Vesicular stomatitis virus, Herpes simplex virus, Visna virus, Respiratory syncytial virus, and Junin virus
[2] = test system: Candida albicans, Aspergillus niger, and Fusarium spp
[3] = test system: normotensive and hypertensive rats
[4] = test system: Propionibacterium acnes, Staphylococcus aureus, Eschericia coli, Streptococci, Mycobacterium tuberculosis, Clostridium difficile and other bacteria
[5] = test system: Enterhemorrhagic E. Coli (EHEC) biofilms; settings: p<0.001 for lauric acid
[6] = test system: prostatic hyperplasia induced by testosterone; settings: rats

Compound: CCCCCCCCCCCC(=O)O [lauric acid]
- Antiviral benefit [1]: antiviral benefit
- Antifungal benefit [2]: antifungal benefit
- Effect on BP and heart rate ([3]; normotensive and hypertensive rats): reduce the BP and heart rate
- Effect on HDL levels ([3]; rat, in vivo): increase HDL levels
- Antibacterial benefit [4]: antibacterial benefit
- Repression of EHEC biofilms versus control [5]: repressed EHEC biofilms significantly differently than the control
- Effect on prostatic hyperplasia induced by testosterone [6]: prevent the prostatic hyperplasia induced by testosterone

Compound: CCCCCCCCCCC(=O)O [undecanoic acid]
- Repression of EHEC biofilms versus control [5]: did not
